Experimental data as given in PubChem BioAssay (NCI).
Values joined by “and” are separate entries in the source; they are usually repeats but may differ in a detail not shown here. Equal entries are not always repeated.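 Cultured in 96-well plates, cells were exposed to test compound for 48 hours across five concentrations. GI50 = concentration required for 50% inhibition of growth. TGI: total growth inhibition.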

Experiments:
Assay in all cases: NCI-60 cell line screen, 48 h
[1] = tested on: HS 578T breast
[2] = tested on: SK-MEL-28 melanoma
[3] = tested on: OVCAR-5 ovarian
[4] = tested on: SF-268 CNS
[5] = tested on: MDA-MB-435
[6] = tested on: MALME-3M melanoma
[7] = tested on: RXF 393 renal
[8] = tested on: LOX IMVI melanoma
[9] = tested on: DMS 114 small cell lung
[10] = tested on: M19-MEL melanoma
[11] = tested on: HOP-18 NSCLC

SMILES | TGI [1] [µM] | TGI [2] [µM] | TGI [3] [µM] | TGI [4] [µM] | TGI [5] [µM] | TGI [6] [µM] | TGI [7] [µM] | TGI [8] [µM] | GI50 [1] [µM] | GI50 [2] [µM] | GI50 [3] [µM] | GI50 [4] [µM] | GI50 [5] [µM] | GI50 [6] [µM] | GI50 [7] [µM] | GI50 [8] [µM] | TGI [9] | TGI [10] [µM] | TGI [11] [µM]
CC(=O)OCC12CN(C#N)C3C4COC(CC41)C1(C(=O)N(C)c4ccccc41)C32 (configuration not stated) | 55.9 | 62.9 | > 100 | > 100 | > 100 | 54.1 | 38.3 | 49.1 | – | – | – | – | – | – | – | – | – | – | –
O=[N+]([O-])c1ccc(/C=C/c2nc3ccc(Cl)cc3[nH]2)cc1 | > 100 | > 100 | > 100 | > 100 | > 100 | > 100 | > 100 | > 100 | 68.2 | > 100 | > 100 | > 100 | 5.36 | > 100 | 71.7 | 27.2 | – | – | –
COc1cc2c3c(n(CCCN4CCNCC4)c(=O)c2cc1OC)-c1cc2c(cc1C3=O)OCO2 | 16.2 | 19.6 | 6.77 | 8.49 | 11.3 | 12.2 | 4.89 | 0.757 | 1.26 | 4.11 | 1.75 | 0.795 | 3.27 | 2.55 | 0.811 | 0.0732 | – | – | –
C/C(=N\NC(=S)N1CCN(c2ccccn2)CC1)c1ccccn1 | 27.9 | 19.3 | 13.4 | 14.2 | 12.3 | 12.8 | 13.4 | 14.4 | 1.28 | – | 0.159 | – | – | 0.406 | – | – | 0.335 µM and 0.103 µM | 2.94 | –
COc1ccc(-c2cc(/C=C3\C(=O)Nc4cc(Cl)ccc43)[nH]n2)cc1 | 35 | > 100 | > 100 | > 100 | 2.11 | > 100 | 7.36 | > 100 | 2.9 | 7.45 | 5.89 | 5.84 | 0.416 | 6.23 | 2.03 | 4.36 | – | – | –
CN(C)C1CCN(Cc2ccc(NC(=O)c3cncc(C#Cc4cnc(N)c5ncccc45)c3)cc2C(F)(F)F)CC1 | 14.8 | 1.74 | 15.6 | 4.72 | 1.83 | 1.65 | 7.67 | 20 | 3.84 | 0.912 | 8.21 | 1.68 | 0.922 | 0.828 | 1.9 | 8.01 | – | – | –
Oc1c(C(Nc2ccccn2)c2cccc(Oc3ccccc3)c2)ccc2cccnc12 (configuration not stated) | > 100 | 17.8 | 12.6 | 14.3 | 16.4 | 19.7 | 22.1 | 16.7 | 0.74 | 0.63 | 0.515 | 0.518 | 0.496 | 0.806 | 1.32 | 0.468 | – | – | –
Cc1ccc(C)c2c1C(=O)N(c1ccc(F)cc1F)C2=O | > 100 | > 100 | > 100 | > 100 | > 100 | > 100 | > 100 | > 100 | > 100 | > 100 | > 100 | > 100 | > 100 | > 100 | > 100 | > 100 | – | – | –
Cc1ccc(-c2nc3nc(-c4ccc(F)cc4)nc(N4CCNCC4)c3o2)cc1 | 5.12 | 28.7 | 4.54 | 4.35 | 3.24 | 19.6 | 23.2 | 3.07 | 2.06 | 14.9 | 1.97 | 1.93 | 1.78 | 6.94 | 10.7 | 1.66 | – | – | –
COc1ccc2c(c1)[n+]([O-])c(-c1cccc(Cl)c1)c(N)[n+]2[O-] | – | 83 | > 100 | > 100 | – | > 100 | > 100 | – | – | – | – | – | – | – | – | – | 65.8 µM | > 100 | > 100
NC(=O)c1cccc2c(N[C@H](CN3CCC3)c3ccc(Cl)c(C(F)(F)F)c3)ncnc12 | 2.65 | 4.13 | 13.5 | 12.9 | 11.3 | 1.85 | 1.4 | 14.7 | 0.191 | 1.18 | 1.77 | 1.09 | 1.44 | 0.399 | 0.141 | 2.73 | – | – | –
